Assay results published in patent US20130245126A1, “GERANYLGERANYLACETONE FORMULATIONS AND RETINAL DELIVERY THEREOF” (COYOTE PHARMACEUTICALS, INC., priority 2012, published 2013).
“And” between values parts separate entries of the source, which are not always exact repeats. Identical values can stand only once. Like-named read-outs stand apart in the source and are kept apart here.

Assays:
[1] = Rat ocular pharmacokinetics: GGA concentration in eye balls after topical eye drops (LC-MS/MS); format: in vivo; conditions: for Mean of Duplicate / R/L: per rat; for Concentration: single determination; for R/L: ratio of right to left eye concentration
Method: (§1) In Cohort 2 the efficacy of Formulation 102 was tested against Formulation 101 and vehicle controls at different time points.
(§2) • Route: topical eye drop formulation • Frequency: 4 or 8 doses, every 1 hour • Dose Administration : under isofluorane anesthesia (2.5%) • Dose Volume: 5 μL in each eye
(§3) • Species: Rat • Strain: Sprague-Dawley • Supplier: Harlan • Sex: Male • Weight at Initiation: 200 to 220 g • Number of Animals: 12 for Cohort 1, 26 for Cohort 2
Eye drops were applied every hour either for 4 hours or for 8 hours. Animals were euthanized 4 hours and 8 hours after the first dosing, and the eye balls collected on dry ice. Eyes were homogenized with a polytron homogenizer in ethanol. GGA was quantified in the eye ball lysates by liquid chromatography-tandem mass spectroscopy.

[2] = test system: HSP70; test: HSP70 analysis by ELISA in rat eyes after eye drops (Example 17, Cohort 2); format: in vivo; conditions: for Ratio: compound treated/vehicle treated, Average (AVE): HSP70, average of 4 rats; for Left (compound treated) AVE: HSP70, average of the left-eye values of Table 3 (pg/ml there); for Ratio treated eye/vehicle treated eye: HSP70, individual rat, left (compound) vs right (vehicle) eye; for HSP70: individual rat, compound-treated left eye, 5% eye drop 0.25 mg/eye per dose hourly, harvest time not stated
Method: as §1
Cohort 2: HSP70 analysis for ELISA only
as §2, §3

[3] = test system: HSP70; test: HSP70 induction in eye balls by eye drops, ELISA normalized by total protein (Example 18); format: in vivo, Rat
Method: Eye drops were applied every hour either for 4 hours or for 8 hours. Animals were euthanized 4 hours, 8 hours or 24 hours after the first dosing, and the eye balls collected on ice. Eyes were homogenized with a polytron homogenizer in a standard lysis buffer containing proteinase inhibitors. HSP70 was quantified by a commercially available ELISA kit and normalized by total protein concentration in the sample.

[4] = Ocular, retinal delivery of GGA by eye drop compared to systemic (PO) delivery, AUC (Example 21); format: in vivo; conditions: for Kp(eye ball) / Kp(retina): 180 mg/kg PO
[5] = Intraocular GGA levels, topical ocular 5% GGA versus 200 mg/kg oral; format: in vivo; conditions: topical ocular composition of 5% GGA vs 200 mg/kg GGA orally
Excerpt: The level achieved thereby into the ocular tissue was many-folds more, for example, about 5 times more than that achieved by systemic delivery by oral administration. […] Such is even more unexpected in view of the eye being a immunprotected organ which is predisposed to impede compounds from getting into the ocular tissue and to remove any compound entered into it.

[6] = contralateral eye, 8 doses, group average of Table 7 means (ng/g there), in ng/g
[7] = left (treated) eye, 4 doses, harvest 4 h
[8] = left (treated) eye, 8 doses, harvest 8 h
[9] = left (treated) eye, 4 hourly doses 0.25 mg/eye, harvest 4 h
[10] = left (treated) eye, 8 hourly doses 0.25 mg/eye, harvest 8 h
[11] = right (contralateral) eye, 4 doses, harvest 4 h
[12] = right (contralateral) eye, 8 doses, harvest 8 h
[13] = treated eye, 8 doses, group average of Table 7 means (ng/g there), in ng/g

| SMILES | contra/ipsi AVE ([1]; 4 doses, 4 h) | contra/ipsi AVE ([1]; 8 doses, 8 h) | 8 h contra AVE [1, 6] | Mean of Duplicate [1, 7] | Mean of Duplicate [1, 8] | Concentration [1, 9] | Concentration [1, 10] | R/L ([1]; 4 doses, 4 h) | R/L ([1]; 8 doses, 8 h) | Mean of Duplicate [1, 11] | Mean of Duplicate [1, 12] | 8 h ispi AVE [1, 13] | Ratio: compound treated/vehicle treated, Average (AVE) [2] | Left (compound treated) AVE [2] | Ratio treated eye/vehicle treated eye [2] | HSP70 [2] | Kp(eye ball) [4] | Kp(retina) [4] | further results |
| --- | --- | --- | --- | --- | --- | --- | --- | --- | --- | --- | --- | --- | --- | --- | --- | --- | --- | --- | --- |
| CC(=O)CCC=C(C)CC/C=C(\C)CC/C=C(\C)CCC=C(C)C (mixture of isomers) [CNS-101, cis-trans geranylgeranyl acetone] | 0.349 | 0.1718 | 2986.667 | 14722 ng/g and 15163 ng/g and 19992 ng/g | 18546 ng/g and 13199 ng/g and 18795.5 ng/g | 14635 ng/g and 14809 ng/g and 15206 ng/g and 15120 ng/g and 19608 ng/g and 20376 ng/g | 18947 ng/g and 18145 ng/g and 12879 ng/g and 13519 ng/g and 18953 ng/g and 18638 ng/g | 0.4357 and 0.2213 and 0.3901 | 0.1996 and 0.1209 and 0.1949 | 6414.5 ng/g and 3355 ng/g and 7799.5 ng/g | 3701 ng/g and 1596 ng/g and 3663 ng/g | 16846.83 | 1.665 | 952.4506 | 1.003 and 2.135 and 1.544 and 1.976 | 589.4561 pg/mL and 1023.901 pg/mL and 1211.234 pg/mL and 985.2114 pg/mL | 0.71 | 2.21 | 4 h contra AVE ([1]; contralateral eye, 4 doses, group average of Table 7 means (ng/g there), in ng/g): 5856.333; concentration at 4 h ([1]; male, Sprague-Dawley, rat, eye balls, topical, CNS-101 concentrations in eye balls, mean ± SD, 4 × 5 ml 5% CNS-101, measured after 4 hrs): 16600 ng/g; concentration at 8 h ([1]; male, Sprague-Dawley, rat, eye balls, topical, CNS-101 concentrations in eye balls, mean ± SD, 8 × 5 ml 5% CNS-101, measured after 8 hrs): 16800 ng/g; 4 h ispi AVE ([1]; treated eye, 4 doses, group average of Table 7 means (ng/g there), in ng/g): 16625.67; HSP70 expression in eye balls, mean ± SD ([3]; topical ocular 5% CNS-101, 4 hours): 50.7 ± 8.01 pg/mg protein; HSP70 expression in eye balls, mean ± SD ([3]; topical ocular 5% CNS-101, 8 hours): 55.9 ± 11.2 pg/mg protein; HSP70 expression in eye balls, mean ± SD ([3]; topical ocular 5% CNS-101, 24 hours): 50.5 ± 10.8 pg/mg protein |
| CC(=O)CCC=C(C)CC/C=C(\C)CC/C=C(\C)CCC=C(C)C (mixture of isomers) [GGA, Geranylgeranyl acetone] |  |  |  |  |  |  |  |  |  |  |  |  |  |  |  |  |  |  | levels of geranylgeranyl acetone achieved intraocularly, topical vs oral [5]: about 5 fold; delivery into the retina and the eyeball ([4]; eye drop): effective delivery |
| CC(=O)CC/C=C(\C)CC/C=C(\C)CC/C=C(\C)CCC=C(C)C [CNS-102, (5E, 9E, 13E) geranylgeranyl acetone] | 0.3052 | 0.2617 | 2105 | 30309 ng/g and 21828 ng/g and 17344 ng/g | 10746 ng/g and 8395 ng/g and 7168.5 ng/g | 32854 ng/g and 27764 ng/g and 21506 ng/g and 22150 ng/g and 17494 ng/g and 17194 ng/g | 12094 ng/g and 9398 ng/g and 8505 ng/g and 8285 ng/g and 7547 ng/g and 6790 ng/g | 0.3848 and 0.2037 and 0.327 | 0.1144 and 0.2267 and 0.444 | 4447 ng/g and 5672 ng/g and 11663.5 ng/g | 1229 ng/g and 1903.5 ng/g and 3182.5 ng/g | 8769.833 | 1.089 | 681.9337 | 0.5953 and 1.239 and 1.26 and 1.263 | 685.1953 pg/mL and 757.1621 pg/mL and 583.588 pg/mL and 701.7893 pg/mL | 0.19 | 0.79 | concentration at 4 h ([1]; male, Sprague-Dawley, rat, eye ball (contralateral eye), topical, 0.25 mg/eye, contralateral eye, 4 doses, group average of Table 7 means (ng/g there), read-out: 4 h contra AVE): 7260 ng/g; concentration at 4 h ([1]; male, Sprague-Dawley, rat, eye ball (treated, ipsilateral eye), topical, 0.25 mg/eye, treated eye, 4 doses, group average of Table 7 means (ng/g there), read-out: 4 h ispi AVE): 23200 ng/g |
